Measured values as given in US20130072427A1, “GPR 119 MODULATORS” (Pfizer Inc., priority 2009, published 2013).
Several values for one entry are separate records, joined by “and”; a condition that tells them apart may be missing. Identical values can stand only once.

Assays:
[1] = biological target: T1, human GPR119 (Homo sapiens, UniProt Q8TDV5); experiment: Beta-lactamase functional assay (hGPR119 HEK293-CRE beta-lactamase reporter); type: cell-based; settings: one line per run; for EC50: hGPR119 HEK293-CRE beta-lactamase cells, 16 hours incubation, read-out: Human B-lactamase Functional EC50; for Emax: percent of maximal activity relative to standard GPR119 agonist (WO2005121121) at 10 microM, read-out: Intrinsic Activity* (%) (B-lactamase)
T1 construct: host or cells: HEK293-CRE beta-lactamase cells
T1 sequence (Q8TDV5 1-335): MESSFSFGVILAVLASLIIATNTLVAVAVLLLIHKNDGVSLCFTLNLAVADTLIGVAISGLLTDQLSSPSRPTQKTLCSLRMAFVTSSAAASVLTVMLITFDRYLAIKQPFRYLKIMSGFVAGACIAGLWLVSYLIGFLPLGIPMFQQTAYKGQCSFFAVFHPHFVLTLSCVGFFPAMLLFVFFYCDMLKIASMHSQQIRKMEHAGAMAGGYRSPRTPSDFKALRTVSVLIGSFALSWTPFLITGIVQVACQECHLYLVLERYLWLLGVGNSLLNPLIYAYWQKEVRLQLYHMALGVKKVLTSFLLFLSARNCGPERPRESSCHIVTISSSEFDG
Procedure: The assay for GPR119 agonists utilizes a cell-based (hGPR119 HEK293-CRE beta-lactamase) reporter construct where agonist activation of human GPR119 is coupled to beta-lactamase production via a cyclic AMP response element (CRE). GPR119 activity is then measured utilizing a FRET-enabled beta-lactamase substrate, CCF4-AM (Live Blazer FRET-B/G Loading kit, Invitrogen cat #K1027). Specifically, hGPR119-HEK-CRE-beta-lactamase cells (Invitrogen 2.5×10^7/mL) were removed from liquid nitrogen storage, and diluted in plating medium (Dulbecco's modified Eagle medium high glucose (DMEM; Gibco Cat #11995-065), 10% heat inactivated fetal bovine serum (HIFBS; Sigma Cat #F4135), 1×MEM Nonessential amino acids (Gibco Cat #15630-080), 25 mM HEPES pH 7.0 (Gibco Cat #15630-080), 200 nM potassium clavulanate (Sigma Cat #P3494). The cell concentration was adjusted using cell plating medium and 50 microL of this cell suspension ([…]) was added into each well of a black, clear bottom, poly-d-lysine coated 384-well plate (Greiner Bio-One cat #781946) and incubated at 37 degrees Celsius in a humidified environment containing 5% carbon dioxide. After 4 hours the plating medium was removed and replaced with 40 microL of assay medium (Assay medium is plating medium without potassium clavulanate and HIFBS). Varying concentrations of each compound to be tested was then added in a volume of 10 microL (final DMSO≦0.5%) and the cells were incubated for 16 hours at 37 degrees Celsius in a humidified environment containing 5% carbon dioxide. Plates were removed from the incubator and allowed to equilibrate to room temperature for approximately 15 minutes. 10 microL of 6×CCF4/AM working dye solution (prepared according to instructions in the Live Blazer FRET-B/G Loading kit, Invitrogen cat #K1027) was added per well and incubated at room temperature for 2 hours in the dark. Fluorescence was measured on an EnVision fluorimetric plate reader, excitation 405 nm, emission 460 nm/535 nm. EC50 determinations were made from agonist-response curves analyzed with a curve fitting program using a 4-parameter logistic dose-response equation.

[2] = biological target: T2, human GPR119 (Homo sapiens, UniProt Q8TDV5); experiment: Beta-arrestin functional assay (DiscoverX PathHunter U2OS hGPR119 β-arrestin cells); type: cell-based; design: Emax: dose or concentration left out as unconfirmed; settings: one line per run; for EC50: U2OS hGPR119 β-arrestin cells, 90 minute incubation, read-out: Human B-arrestin Functional EC50; for Emax: U2OS, percent of maximal activity relative to standard GPR119 agonist (WO2005121121) at 10 microM, read-out: Intrinsic Activity* (%) (B-arrestin)
T2 construct: host or cells: U2OS
Procedure: GPR119 agonist activity was also determined with a cell-based assay utilizing DiscoverX PathHunter β-arrestin cell assay technology and their U2OS hGPR119 β-arrestin cell line (DiscoverX Cat #93-0356C3). In this assay, agonist activation is determined by measuring agonist-induced interaction of β-arrestin with activated GPR119. A small, 42 amino acid enzyme fragment, called ProLink was appended to the C-terminus of GPR119. Arrestin was fused to the larger enzyme fragment, termed EA (Enzyme Acceptor). Activation of GPR119 stimulates binding of arrestin and forces the complementation of the two enzyme fragments, resulting in formation of a functional β-galactosidase enzyme capable of hydrolyzing substrate and generating a chemiluminescent signal.
Specifically, U2OS hGPR119 β-arrestin cells (DiscoverX 1×10^7/ml) are removed from cryopreservation and diluted in growth medium (Minimum essential medium (MEM; Gibco Cat #11095-080), 10% heat inactivated fetal bovine serum (HIFBS; Sigma Cat #F4135-100), 100 mM sodium pyruvate (Sigma Cat #S8636), 500 microg/mL G418 (Sigma Cat #G8168) and 250 microg/mL Hygromycin B (Invitrogen Cat #10687-010). The cell concentration was adjusted to 1.66×10^5 cells/ml and 30 mls of this suspension was added to a T-175 flask and incubated at 37 degrees Celsius in a humidified environment in 5% carbon dioxide. After 48 hours, the cells were removed from the T-175 flask with enzyme-free cell dissociation buffer (Gibco cat #13151-014), centrifuged at 800×g and then re-suspended in plating medium (Opti-MEM I (Invitrogen/BRL Cat #31985-070) and 2% charcoal dextran treated fetal bovine serum (CD serum; HyClone Cat #SH30068.03). The cell concentration was adjusted to 2.5×10^5 cells/ml with plating medium and 10 microL of this cell suspension (2500 cells) was added to each well of a white Greiner 384-well low volume assay plate (VWR cat #82051-458) and the plates were incubated at 37 degrees Celsius in a humidified environment in 5% carbon dioxide.
After 16 hours (overnight) the assay plates were removed from the incubator and varying concentrations of each compound to be tested (diluted in assay buffer (1×HBSS+CaCl2+MgCl2 (Gibco Cat #14025-092), 20 mM HEPES pH 7.0 (Gibco Cat #15630-080) and 0.1% BSA (Sigma Cat #A9576)) were added to the assay plate wells in a volume of 2.5 microL (final DMSO concentration was 0.5%). After a 90 minute incubation at 37 degrees Celsius in a humidified environment in 5% carbon dioxide, 7.5 microL of Galacton Star β-galactosidase substrate (PathHunter Detection Kit (DiscoveRx Cat #93-0001); prepared as described in the manufacturers assay protocol) was added to each well of the assay plate. The plates were incubated at room temperature and after 60 minutes, changes in the luminescence were read with an Envision 2104 multilabel plate reader at 0.1 seconds per well. EC50 determinations were made from an agonist-response curves analyzed with a curve fitting program using a 4-parameter logistic dose response equation.
T2 sequence (P32121 whole entry partner, one chain of several): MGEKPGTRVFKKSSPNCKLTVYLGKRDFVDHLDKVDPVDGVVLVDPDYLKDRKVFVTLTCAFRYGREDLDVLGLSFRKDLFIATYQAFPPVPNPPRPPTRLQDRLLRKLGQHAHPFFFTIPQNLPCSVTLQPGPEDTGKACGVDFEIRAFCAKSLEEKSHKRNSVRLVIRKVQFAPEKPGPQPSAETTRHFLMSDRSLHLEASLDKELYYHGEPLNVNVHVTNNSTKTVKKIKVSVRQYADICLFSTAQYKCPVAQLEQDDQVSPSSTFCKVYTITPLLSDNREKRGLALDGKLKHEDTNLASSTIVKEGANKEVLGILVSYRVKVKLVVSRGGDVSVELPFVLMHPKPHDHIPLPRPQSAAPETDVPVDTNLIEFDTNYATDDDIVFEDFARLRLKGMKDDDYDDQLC

Cc1c(OC2CCN(C(=O)OC(C)C)CC2)ncnc1N1Cc2cnn(C)c2C1 [Example 2, Isopropyyl 4-{[5-methyl-6-(1-methyl-4,6-dihydropyrrolo[3,4-c]pyrazol-5(1H)-yl)pyrimidin-4-yl]oxy}piperidine-1-carboxylate]
EC50 [1]: 0.662 µM
Emax [1]: 103%

Cc1c(O[C@H]2CCN(C(=O)OC(C)(C)C)C[C@H]2F)ncnc1N1Cc2cnn(C)c2C1 (racemic) [Example 6, tert-Butyl (3,4-cis)-3-fluoro-4-{[5-methyl-6-(1-methyl-4,6-dihydropyrrolo[3,4-c]pyrazol-5(1H)-yl)pyrimidin-4-yl]oxy}piperidine-1-carboxylate (racemic)]
EC50 [2]: 0.019 µM
Emax [2]: 67%

Cc1c(O[C@H]2CCN(C(=O)OC(C)(C)C)C[C@@H]2F)ncnc1N1Cc2cnn(C)c2C1 (racemic) [Example 8, tert-Butyl (3,4-trans)-3-fluoro-4-{[5-methyl-6-(1-methyl-4,6-dihydropyrrolo[3,4-c]pyrazol-5(1H)-yl)pyrimidin-4-yl]oxy}piperidine-1-carboxylate (racemic)]
EC50 [2]: 0.081 µM and 0.754 µM

CC(C)OC(=O)N1CCC(Oc2ncnc(N3Cc4cnn(C)c4C3)c2C#N)CC1 [Example 3, Isopropyyl 4-{[5-cyano-6-(1-methyl-4,6-dihydropyrrolo[3,4-c]pyrazol-5(1H)-yl)pyrimidin-4-yl]oxy}piperidine-1-carboxylate]
EC50 [1]: 2.05 µM
Emax [1]: 107%

Cc1c(O[C@H]2CCN(C(=O)OC3(C)CC3)C[C@H]2F)ncnc1N1Cc2cnn(C)c2C1 (racemic) [Example 7, 1-Methylcyclopropyyl (3,4-cis)-3-fluoro-4-{[5-methyl-6-(1-methyl-4,6-dihydropyrrolo[3,4-c]pyrazol-5(1H)-yl)pyrimidin-4-yl]oxy}piperidine-1-carboxylate (racemic)]
EC50 [2]: 0.023 µM
Emax [2]: 77%

Cc1c(O[C@H]2[C@@H]3COC[C@H]2CN(C(=O)OC(C)(C)C)C3)ncnc1N1Cc2cnn(C)c2C1 [Example 9, tert-Butyl (9-anti)-9-{[5-methyl-6-(1-methyl-4,6-dihydropyrrolo[3,4-c]pyrazol-5(1H)-yl)pyrimidin-4-yl]oxy}-3-oxa-7-azabicyclo[3.3.1]nonane-7-carboxylate]
EC50 [2]: 0.056 µM
Emax [2]: 70%
